Measured values: patent publication US4061737A, “Method for stimulating release of prolactin” (American Home Products Corporation, priority 1976, dated 1977)

Key:
mouse vas deferens = conditions: cited from earlier work
rat pituitary cells = experiment: Prolactin release in monolayer cultures of rat pituitary cells; type: cell-based; conditions: for Prolactin release versus control (in words): all levels from 5 ng/ml to 50 μg/ml; for Prolactin Release (mean ± SEM): 3 hours at 37° C., control 197 ± 13
Description: Monolayer cultures of enzymatically dispersed pituitary cells were prepared from male rats, using Eagle's minimal essential medium for growth. After incubation in triplicate dishes for 3 hours at 37° C. in 95% air: 5% CO2, the supernatant from each dish was assayed for prolactin in duplicate.

opiate receptor sites = conditions: cited from earlier work
guinea pig ileum = conditions: cited from earlier work
[1] = system: Male Charles River CD rats; experiment: Prolactin plasma levels in rats 15 minutes after enkephalin injection (radioimmunoassay); type: in vivo, rat; conditions: for Change in prolactin levels upon injection (in words): 5 mg/kg., subcutaneous or intravenous
Description: Male Charles River CD rats were injected with the enkephalin (in saline) or saline alone either subcutaneously or intravenously via the femoral vein. Fifteen minutes later the animals were decapitated and blood collected (12 mg. versene and 6000 units of Trasylol added per tube). Each plasma sample was assayed for prolactin in quadruplicate by specific double antibody radioimmunoassays, using NIAMDD reagents and the procedure of Neill and Reichert, Endocrinology, 88, 548 (1971).

[2] = in vivo; cited from earlier work
[3] = Experiment 2, 5mg/kg. SC, 15 minutes after injection, control 40 ± 3

Row | SMILES | Contractions of mouse vas deferens (in words) (mouse vas deferens) | Prolactin release versus control (in words) (rat pituitary cells) | Prolactin release compared with leucine-enkephalin (in words) (rat pituitary cells; difference statistically significant at 50 μg/ml and 500 ng/ml) | Prolactin Release (mean ± SEM) (rat pituitary cells; enkephalin 5 ng/ml) [ng/mL] | Prolactin Release (mean ± SEM) (rat pituitary cells; enkephalin 50 ng/ml) [ng/mL] | Prolactin Release (mean ± SEM) (rat pituitary cells; enkephalin 500 ng/ml) [ng/mL] | Prolactin Release (mean ± SEM) (rat pituitary cells; enkephalin 5 μg/ml) [ng/mL] | Prolactin Release (mean ± SEM) (rat pituitary cells; enkephalin 50 μg/ml) [ng/mL] | Stereospecific binding of 3H-naloxone to guinea pig brain (in words) (opiate receptor sites) | Contractions of guinea pig ileum (in words) (guinea pig ileum) | Change in prolactin levels upon injection (in words) [1] | Prolactin plasma level (mean ± SEM) [1, 3] [ng/mL] | Prolactin plasma level (mean ± SEM) ([1]; Experiment 3, 5mg/kg. IV, 15 minutes after injection, control 20 ± 1) [ng/mL] | Prolactin plasma level (mean ± SEM) ([1]; rat, in vivo) | Prolactin plasma level (mean ± SEM) ([1]; Experiment 1, 5mg/kg. SC, 15 minutes after injection, control 29 ± 3) [ng/mL] | Prolactin plasma level (mean ± SEM) ([1]; Experiment 4, 5mg/kg. IV, 15 minutes after injection, control 43 ± 7) [ng/mL] | Prolactin plasma level (mean ± SEM) ([1]; Experiment 5, 5mg/kg. IV, 15 minutes after injection, control 31 ± 3) [ng/mL] | Prolactin plasma level (mean ± SEM) ([1]; Experiment 6, 5mg/kg. IV, 15 minutes after injection, control 47 ± 5) [ng/mL] | Prolactin plasma level (mean ± SEM) ([1]; Experiment 8, 5mg/kg. IV, 15 minutes after injection, control 63 ± 10) [ng/mL] | Prolactin levels (in words) [2]
1 | CSCC[C@H](NC(=O)[C@H](Cc1ccccc1)NC(=O)CNC(=O)CNC(=O)[C@@H](N)Cc1ccc(O)cc1)C(=O)O [Met-Enkephalin, H-Tyr-Gly-Gly-Phe-Met-OH] | inhibit | significantly increased | greater release of prolactin than leucine-enkephalin | 261 ± 15 | 257 ± 14 | 305 ± 14 | 255 ± 10 | 307 ± 8 | inhibit | inhibit | consistent, statistically significant increase | 49 ± 3 | 24 ± 1 | 43 ± 3 |  |  |  |  |  | 
2 | CC(C)C[C@H](NC(=O)[C@H](Cc1ccccc1)NC(=O)CNC(=O)CNC(=O)[C@@H](N)Cc1ccc(O)cc1)C(=O)O [Leu-Enkephalin, H-Tyr-Gly-Gly-Phe-Leu-OH] | inhibit | significantly increased |  | 247 ± 7 | 254 ± 14 | 253 ± 18 | 244 ± 10 | 260 ± 15 | inhibit | inhibit | more variable | 40 ± 3 |  |  | 40 ± 6 | 29 ± 5 | 55 ± 5 | 59 ± 11 | 61 ± 10 | 
3 | CN1CC[C@]23c4c5ccc(O)c4O[C@H]2[C@@H](O)C=C[C@H]3[C@H]1C5 [morphine, reference compound] | also elicited by morphine |  |  |  |  |  |  |  |  | also elicited by morphine |  |  |  |  |  |  |  |  |  | can raise prolactin levels
